Assay results from patent US11760773B2, “Small molecule drug conjugates of gemcitabine monophosphate” (MaveriX Oncology, Inc., priority 2018, dated 2023).
Read-outs that look alike come from different tables or passages of the source.

Assays:
[1] = Gemcitabine normal tissue and plasma PK in CD-1 mice (study e); format: in vivo; conditions: male CD-1 mice, iv gemcitabine, FIG. 6
Procedure: Objectives: to determine the normal tissue pharmacokinetics, distribution, and stability of gemcitabine in select excretory organs and plasma following a single intravenous infusion administration of gemcitabine at 10.5 mg/kg in male CD-1 mice.
PK measurements: determine PK parameters C0, CL, Vdss, Cmax, tmax, t1/2, AUC(0-t), AUC(0-inf), MRT(0-t), MRT(0-inf) for gemcitabine

[2] = Int 1-4 normal tissue and plasma PK in CD-1 mice (study d); format: in vivo; conditions: male CD-1 mice, iv Int 1-4, FIG. 5
Procedure: Objectives: to compare the normal tissue pharmacokinetics, distribution, and stability of Int 1-4 in excretory organs following a single intravenous infusion administration of Int 1-4 at 20 mg/kg in male CD-1 mice.
PK measurements: compare PK parameters C0, CL, Vdss, Cmax, tmax, t1/2, AUC(0-t), AUC(0-inf), MRT(0-t), MRT(0-inf) for Int 1-4

[3] = Rat plasma stability; format: in vitro ADME
Procedure: Method: Assay was carried out in 96-well microtiter plates. Compounds were incubated in replicates (n=2) for 0, 5, 15, 30, and 45 minutes at 37° C. Reaction mixtures (20 μL) contained a final concentration of 3 μM test compound in fresh Sprague Dawley rat plasma. Eucatropine is a positive control to verify assay performance. Linear regression of semi-log plot of % remaining of compounds versus time used to determine the half-life t1/2 values.

[4] = Mouse liver S9 stability; format: in vitro ADME; conditions: for microsomal CLint: mouse
[5] = Liver microsomal stability, dog; format: in vitro ADME; conditions: dog liver microsomes
[6] = Liver microsomal stability, monkey; format: in vitro ADME; conditions: monkey liver microsomes

## Nc1ccn([C@@H]2O[C@H](CO)[C@@H](O)C2(F)F)c(=O)n1 [Gemcitabine, gemcitabine]
[1]
  fate in plasma and normal tissue: deaminated to dFdU

## COc1cc(OC)c2oc(COC(=O)Nc3ccn([C@@H]4O[C@H](CO)[C@@H](O)C4(F)F)c(=O)n3)cc2c1 [Int 1-4, (5,7-di(methoxy)benzofuran-2-yl)methyl (1-((2R,4R,5R)-3,3-difluoro-4-hydroxy-5-(hydroxymethyl)tetrahydrofuran-2-yl)-2-oxo-1,2-dihydropyrimidin-4-yl)carbamate]
[2]
  stability in plasma and major excretory organs (liver, kidney): stable
[3]; Sprague Dawley rat plasma, 3 μM, 37° C.
  Slope Mean ± SE: −0.009305 ± 0.001423
[3]; Sprague Dawley rat plasma, read-out: t1/2 (converted)
  half-life at 3 μM: ~72 min
[3]; fresh Sprague Dawley rat plasma, 3 μM, 37° C., read-out: t1/2 Mean ± SE
  half-life at 3 μM: 74.5 ± 11.4 min
[4]; mouse liver S9
  Slope Mean ± SE: −0.00317 ± 0.000413
[4]; mouse liver S9, read-out: t1/2 Mean ± SE
  half-life: 219 ± 28.5 min
[4]; liver S9, mouse liver S9, summary, read-out: S9 intrinsic clearance Clint
  microsomal CLint: < 2.5 µL/min/mg
[4]; liver S9, mouse liver S9, text value, read-out: intrinsic clearance value
  microsomal CLint: 1.27 µL/min/mg
[4]; liver S9, mouse liver S9, read-out: CLint Mean ± SE
  microsomal CLint: 1.27 ± 0.165 µL/min/mg
[5]
  half-life: 144 min
  microsomal CLint: 9.63 µL/min/mg
[5]; 0 min
  Compound Remaining (% of 0 min) 0 min: 100 % of 0 min
[5]; 5 min
  Compound Remaining (% of 0 min) 5 min: 97.1 % of 0 min
[5]; 15 min
  Compound Remaining (% of 0 min) 15 min: 90.8 % of 0 min
[5]; 30 min
  Compound Remaining (% of 0 min) 30 min: 85.7 % of 0 min
[5]; 45 min
  Compound Remaining (% of 0 min) 45 min: 80.4 % of 0 min
[5]; control
  Compound Remaining (% of 0 min) control: 94.5 % of 0 min
[6]
  half-life: 34 min
  microsomal CLint: 40.8 µL/min/mg
[6]; 0 min
  Compound Remaining (% of 0 min) 0 min: 100 % of 0 min
[6]; 5 min
  Compound Remaining (% of 0 min) 5 min: 99.5 % of 0 min
[6]; 15 min
  Compound Remaining (% of 0 min) 15 min: 79.8 % of 0 min
[6]; 30 min
  Compound Remaining (% of 0 min) 30 min: 61.0 % of 0 min
[6]; 45 min
  Compound Remaining (% of 0 min) 45 min: 40.5 % of 0 min
[6]; control
  Compound Remaining (% of 0 min) control: 97.2 % of 0 min
